We go through nine compounds from PubChem BioAssay (NCI).

Among the test systems are MDA-MB-435; MALME-3M melanoma; OVCAR-3 ovarian; RPMI-8226 leukemia; SK-MEL-2 melanoma; SNB-19 CNS; SW-620 colon; MOLT-4 leukemia; SF-268 CNS; EKVX NSCLC.
Common to all, as to assay: NCI anticancer screen, dose series, 48 h

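Values below derive from 48-hour exposures of cells grown in 96-well plates, with endpoints linearly interpolated between the two concentrations bracketing the appropriate inhibition level. GI50 is the concentration that inhibits growth by half. TGI denotes the concentration required for complete inhibition of growth.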

Consider `CC[C@@]1(OC(=O)CN)C(=O)OCc2c1cc1n(c2=O)Cc2c-1nc1cc3c(cc1c2CCl)OCO3`, for which the GI50 in the test on MDA-MB-435 is 0.16 µM; in the test with MALME-3M melanoma, 0.0501 µM; in the test with OVCAR-3 ovarian, 0.372 µM; with RPMI-8226 leukemia, 0.0374 µM; in the test with SK-MEL-2 melanoma, 1.24 µM; with SNB-19 CNS, below 0.01 µM. Also, the GI50 is below 0.0196 µM in the test on SW-620 colon, below 0.01 µM in the test on MOLT-4 leukemia, below 0.01 µM in the test on SF-268 CNS and 1.84 µM in the test with EKVX NSCLC. In addition, the TGI with MDA-MB-435 came out at 4.15 µM; in the test with MALME-3M melanoma, 4.44 µM; in the test with OVCAR-3 ovarian, 4.1 µM; in the test on RPMI-8226 leukemia, 0.597 µM; in the test on SK-MEL-2 melanoma it was 5.04 µM; with SNB-19 CNS, 13.7 µM. For the same compound, the TGI came out at 32.6 µM in the test with SW-620 colon, 0.516 µM with SF-268 CNS and 26.5 µM in the test on EKVX NSCLC.

On to `CCCCCCCCOC(=O)c1c(C)[nH]c(/C=C2\N=C(c3ccc[nH]3)C=C2OC)c1C`, for which the GI50 with MDA-MB-435 was 0.0226 µM; in the test with MALME-3M melanoma, 0.641 µM; with OVCAR-3 ovarian, 0.0276 µM; with RPMI-8226 leukemia it was 0.12 µM; with SK-MEL-2 melanoma it was 0.0279 µM; with SNB-19 CNS, 0.551 µM. Further, the GI50 in the test on SW-620 colon is below 0.0181 µM; with MOLT-4 leukemia, below 0.0201 µM; in the test on SF-268 CNS it was 0.0498 µM; in the test on EKVX NSCLC, 0.12 µM. Further, the TGI in the test with MDA-MB-435 was 1.41 µM; in the test with MALME-3M melanoma, 2.67 µM; with OVCAR-3 ovarian, 0.422 µM; with RPMI-8226 leukemia, 2.11 µM; in the test with SK-MEL-2 melanoma it was 0.0952 µM; in the test on SNB-19 CNS it was above 46.3 µM. Moreover, the TGI in the test with SW-620 colon came out at 1.56 µM; in the test with MOLT-4 leukemia, 18.5 µM; in the test on SF-268 CNS, 7.2 µM; with EKVX NSCLC, 9.15 µM.

`CCCCCN(CCCCC)CC(O)c1cc(Cl)ccc1OC` (centres undefined): the GI50 in the test with MDA-MB-435 was 8.53 µM; in the test with MALME-3M melanoma, 6.29 µM; in the test on OVCAR-3 ovarian it was 10.8 µM; with RPMI-8226 leukemia, 4.81 µM; in the test with SK-MEL-2 melanoma, 3.22 µM; in the test on SNB-19 CNS it was 14.6 µM. Besides, the GI50 in the test on SW-620 colon was 4.66 µM; in the test with MOLT-4 leukemia it was 6.94 µM; with SF-268 CNS it was 11.4 µM; with EKVX NSCLC it was 6.39 µM. Further, the TGI in the test with MDA-MB-435 is 21.1 µM; in the test on MALME-3M melanoma, 21.3 µM; in the test with OVCAR-3 ovarian it was 23.6 µM; in the test with RPMI-8226 leukemia it was 22.7 µM; with SK-MEL-2 melanoma it was 14.2 µM; in the test on SNB-19 CNS, 50.1 µM. Besides, the TGI came to 18.2 µM with SW-620 colon, 28.7 µM with MOLT-4 leukemia, 24.4 µM in the test on SF-268 CNS and 22.3 µM in the test on EKVX NSCLC.

With `CCN1CCN(c2cc(C)nc(N(CCCNc3ccnc4cc(Cl)ccc34)Cc3ccc4c(c3)OCO4)n2)CC1`, the GI50 with MDA-MB-435 is 1.77 µM; in the test on MALME-3M melanoma it was 1.87 µM; with OVCAR-3 ovarian, 2.35 µM; with RPMI-8226 leukemia, 1.8 µM; in the test with SK-MEL-2 melanoma it was 2.14 µM; in the test with SNB-19 CNS, 4.16 µM. In addition, the GI50 in the test with SW-620 colon is 2.81 µM; with MOLT-4 leukemia it was 2.84 µM; in the test with SF-268 CNS it was 2.57 µM; in the test on EKVX NSCLC, 4.56 µM. In addition, the TGI with MDA-MB-435 came to 3.3 µM; in the test on MALME-3M melanoma it was 3.5 µM; in the test on OVCAR-3 ovarian, 6.09 µM; with RPMI-8226 leukemia, 4.49 µM; in the test with SK-MEL-2 melanoma, 4.74 µM; in the test with SNB-19 CNS it was 52 µM. Further, the TGI in the test on SW-620 colon was 12.5 µM; with MOLT-4 leukemia, above 100 µM; in the test with SF-268 CNS, 7.9 µM; in the test on EKVX NSCLC, above 100 µM.

Turning to `COc1cccc(CN(C)c2ccc(CO)c(Cl)c2)c1`, the GI50 in the test with MDA-MB-435 is 19.7 µM; with MALME-3M melanoma, 25.9 µM; in the test on OVCAR-3 ovarian, 2.31 µM; with RPMI-8226 leukemia, 12.8 µM; in the test with SK-MEL-2 melanoma, 7.78 µM; in the test on SNB-19 CNS, 35.2 µM. Besides, the GI50 was 4.34 µM in the test on SW-620 colon, 33.1 µM in the test with MOLT-4 leukemia, 44.5 µM in the test on SF-268 CNS and 24.8 µM in the test on EKVX NSCLC. In addition, the TGI is 66.2 µM with MDA-MB-435; above 89.7 µM in the test with MALME-3M melanoma; 10.6 µM in the test with OVCAR-3 ovarian; above 78.3 µM with RPMI-8226 leukemia; 42.5 µM in the test with SK-MEL-2 melanoma; above 100 µM with SNB-19 CNS. Also, the TGI is above 100 µM in the test on SW-620 colon, above 100 µM in the test with MOLT-4 leukemia, above 100 µM in the test with SF-268 CNS and 97.9 µM in the test with EKVX NSCLC.

In the case of `NS(=O)(=O)c1ccc(N=Nc2c(O)[nH]c3ccc(C(=O)NCc4ccncc4)cc23)cc1`, the GI50 with MDA-MB-435, in the test on MALME-3M melanoma, with OVCAR-3 ovarian, with RPMI-8226 leukemia, in the test on SK-MEL-2 melanoma and in the test with SNB-19 CNS was above 25 µM throughout. In addition, the GI50 in the test with SW-620 colon, with MOLT-4 leukemia, in the test with SF-268 CNS and in the test with EKVX NSCLC was above 25 µM in each case. The TGI in the test with MDA-MB-435, in the test with MALME-3M melanoma, in the test on OVCAR-3 ovarian, in the test on RPMI-8226 leukemia, in the test on SK-MEL-2 melanoma and in the test with SNB-19 CNS was above 25 µM each time. The TGI in the test with SW-620 colon, with MOLT-4 leukemia, in the test with SF-268 CNS and in the test with EKVX NSCLC was above 25 µM each time.

`C1=C/COCc2cc(ccc2OCCN2CCCC2)Nc2nccc(n2)-c2ccc(o2)COC/1`: the GI50 in the test on MDA-MB-435 is 1.2 µM; in the test with MALME-3M melanoma, 1.4 µM; in the test on OVCAR-3 ovarian, 1.99 µM; in the test on RPMI-8226 leukemia, 2.29 µM; with SK-MEL-2 melanoma, 1.46 µM; in the test on SNB-19 CNS, 2.93 µM. Also, the GI50 in the test with SW-620 colon is 2.36 µM; in the test on MOLT-4 leukemia, 1.63 µM; in the test on SF-268 CNS it was 1.69 µM; with EKVX NSCLC, 1.88 µM. For the same compound, the TGI was determined as 3.73 µM in the test on MDA-MB-435; 3.69 µM in the test with MALME-3M melanoma; 8.48 µM in the test on OVCAR-3 ovarian; 5.21 µM in the test on RPMI-8226 leukemia; 4 µM in the test with SK-MEL-2 melanoma; 13.5 µM with SNB-19 CNS. Moreover, the TGI with SW-620 colon stood at 11.7 µM; in the test on MOLT-4 leukemia it was 5.57 µM; in the test with SF-268 CNS, 4.45 µM; with EKVX NSCLC, 5.89 µM.

For `CCc1ccccc1NC(=O)/C=C/c1ccccc1`, the TGI with MDA-MB-435, in the test on MALME-3M melanoma, in the test with OVCAR-3 ovarian, in the test with RPMI-8226 leukemia, in the test on SK-MEL-2 melanoma and with SNB-19 CNS was above 100 µM each time. For the same compound, the TGI in the test on SW-620 colon, in the test with MOLT-4 leukemia, in the test with SF-268 CNS and in the test on EKVX NSCLC was above 100 µM throughout.

Turning to `NC(=O)[C@@H](CC1CC1)[C@@H](CCC(F)(F)F)C(=O)N[C@H]1N=C(c2ccccc2)c2cccc(F)c2NC1=O`, the GI50 in the test on MDA-MB-435 was 66.7 µM; in the test on MALME-3M melanoma, 15.4 µM; in the test on OVCAR-3 ovarian, above 100 µM; with RPMI-8226 leukemia, 27.8 µM; with SK-MEL-2 melanoma, above 100 µM; in the test with SNB-19 CNS, above 100 µM. The GI50 was above 100 µM in the test with SW-620 colon, 18.5 µM with MOLT-4 leukemia, above 100 µM in the test with SF-268 CNS and above 100 µM with EKVX NSCLC. The TGI in the test with MDA-MB-435 was above 100 µM; with MALME-3M melanoma, 32.5 µM; in the test with OVCAR-3 ovarian it was above 100 µM; in the test on RPMI-8226 leukemia, above 100 µM; in the test on SK-MEL-2 melanoma it was above 100 µM; in the test with SNB-19 CNS, above 100 µM. Moreover, the TGI in the test on SW-620 colon, in the test with MOLT-4 leukemia, in the test on SF-268 CNS and with EKVX NSCLC was above 100 µM in each case.
